Legend:
THP-1 microsomal ACAT [1] = biological target: T1, THP-1 microsomal ACAT (Homo sapiens, UniProt P35610); assay: Bioavailability assessment of ACAT inhibitors by their ex vivo activity (serum of dosed mice on THP-1 microsomal ACAT); format: in vivo; conditions: female mice, 30 mg/kg per os, 1% CMC-Na 0.2% Tween 80; maximum inhibition by serum
T1 construct: ACAT enzyme fraction was prepared from microsome of human leukemia THP-1 cell; endogenous in cells; host or cells: THP-1 (human leukemia), microsomes
T1 sequence (P35610 1-550): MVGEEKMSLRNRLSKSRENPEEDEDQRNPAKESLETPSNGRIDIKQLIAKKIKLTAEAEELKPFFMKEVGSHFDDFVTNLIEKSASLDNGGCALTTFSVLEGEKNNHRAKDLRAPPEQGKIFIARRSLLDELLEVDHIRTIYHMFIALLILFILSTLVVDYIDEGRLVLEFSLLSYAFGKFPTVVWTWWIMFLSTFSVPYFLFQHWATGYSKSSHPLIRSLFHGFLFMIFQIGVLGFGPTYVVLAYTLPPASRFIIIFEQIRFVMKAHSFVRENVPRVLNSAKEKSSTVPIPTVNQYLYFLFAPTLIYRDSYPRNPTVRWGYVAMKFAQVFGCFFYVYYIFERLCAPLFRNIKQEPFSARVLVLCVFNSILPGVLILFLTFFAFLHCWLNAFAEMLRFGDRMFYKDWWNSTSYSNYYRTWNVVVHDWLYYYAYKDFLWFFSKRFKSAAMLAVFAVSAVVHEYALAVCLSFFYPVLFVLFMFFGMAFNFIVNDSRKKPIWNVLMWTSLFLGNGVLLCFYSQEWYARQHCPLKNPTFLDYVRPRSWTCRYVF
Description: (5) Bioavailability Assessment of ACAT Inhibitors by Their <<ex vivo>> Activity
[…] Blood samples were collected 0.5, 1, 1.5, 2, 6 hour postdose. Serum were harvested after gentle centrifugation and stored at -20.
The following day, 10 μl serum were preincubated at 37 for 5 minutes with 20 μl of THP-1 microsomal ACAT and then incubated 10 minutes with 20 μl of radiolabeled oleoyl-CoA as described above in method (4). The serum is used instead of the drug solution.
ACAT inhibitory activities of the test compounds were shown as maximum inhibition percentages (Imax).

THP-1 microsomal ACAT [2] = biological target: T1, THP-1 microsomal ACAT; assay: In vitro test using THP-1 microsome (ACAT inhibition); format: biochemical; conditions: THP-1 microsome; read-out: IC50 THP1 microsome
Description: (4) In Vitro Test Using THP-1 Microsome
Then, the reaction was initiated by the addition of 5 nmoles of labeled [^14 C] oleoyl-CoA dissolved in 20 μl of said phosphate buffer solution containing BSA and the reaction was stopped by the addition of 20 μl of 2N HCl after 10 minutes. [^14 C] cholesterol-oleate formed was separated by thin-layer chromatography and the radioactivity was counted with liquid scintillation counter.

ACAT of macrophages = assay: In vivo test using peritoneal macrophages in C57BL/6J mice (ACAT inhibition); parameters: species or system mouse; conditions: female C57BL/6J mice, 30 mg/kg/day per os for 4 days
Description: (6) In Vivo Test Using Peritoneal Macrophages in C57BL/6J Mice
A standard pellet diet fed female C57BL/6J mice were administered at 10 a.m. per os 30 mg/kg/day of oral suspension (1% CMC-Na 0.2% Tween 80) for 4 days. Thioglycollate and [^14 C] cholesterol were injected […], mice were sacrificed for the collection of peritoneal macrophages. Lipid was extracted, formed [^14 C] cholesterol-ester was separated by thin-layer chromatography and radioactivity was counted as described above in method (3).
In vivo ACAT inhibitory activities on macrophages were expressed as percentage of inhibition compared to control group.

[3] = Acute toxicity, male ICR strain mouse; format: in vivo; conditions: 1000 mg/kg orally, seven days after administration
Description: (1) Acute toxicity: Nine compounds (Example Nos. 1, 2, 5, 6, 12, 19, 28, 31 and 45) were tested by using male ICR strain mouse weighing 23.0±0.7 g.

ACAT of THP-1 cells = biological target: T2, ACAT of THP-1 cells (Homo sapiens, UniProt P35610); assay: In-vitro test using THP-1 intact cell (ACAT inhibition); format: cell-based; conditions: read-out: IC50 THP1 (intact cell)
T2 construct: differentiated into macrophage-like cells by phorbol ester; endogenous in cells; host or cells: THP-1 (human leukemia), intact cells differentiated by phorbol ester
T2 sequence (P35610 1-550): T1 sequence (P35610 1-550)
Description: (2) In-vitro Test Using THP-1 Intact Cell
About 2 million cells of human leukemia cell line, THP-1 were seeded in a well with 2 ml of medium and differentiated into macrophage-like cells by phorbol ester. Then, the cells were washed with phosphate-buffered saline (PBS) solution and the medium was replaced by fresh medium supplemented with 10% of lipoprotein-deficient serum. After the addition of each test compound dissolved in dimethyl sulfoxide and 100 μg protein-containing human low density lipoprotein (LDL), the reaction was initiated by the addition of 10 nmoles of labeled [^14 C]oleic acid and 10 nmoles of oleic acid complexed with BSA in PBS solution. After 22 hours, the reaction was stopped by removal the medium and CHCl3 -MeOH (2:1) were added to the cell suspension in order to extract lipids.
Intracellular [^14 C] cholesterol-oleate formed was separated by thin-layer chromatography and the radioactivity was counted with lipid scintillation counter.
(§1) ACAT inhibitory activities of the test compounds were shown as IC50 values.

ACAT of HepG2 microsome = assay: In-vitro test using Hep G2 microsome (ACAT inhibition); format: biochemical, human
Description: (1) In-vitro Test Using Hep G2 Microsome
ACAT enzyme fraction was prepared from microsome of human derived hepatoma Hep G2 cell according to Sandra's method [Journal of Lipid Research, 27, 875 (1986)].
Microsome was suspended at a concentration of 200 μg protein/20 μl in 0.1M phosphate buffer solution (pH7.4) and the suspension was preincubated at 37° C. for 5 minutes after addition of 10 μl of each test compound dissolved in 0.1M phosphate buffer solution containing bovine serum albmin (BSA). Then, the reaction was initiated by the addition of 5 nmoles of labeled [^14 C]-oleoyl-CoA dissolved in 20 μl of the said phosphate buffer solution containing BSA and the reaction was stopped by the addition of 20 μl of 2N HCl after 10 minutes. [^14 C] cholesterol-oleate formed was separated by thin-layer chromatography and the radioactivity was counted with liquid scintillation counter.
as §1

Row | Imax Ex vivo (THP-1 microsomal ACAT [1]) [%] | IC50 (THP-1 microsomal ACAT [2]) [nM] | Compound | Inhibition rate (macrophages) (ACAT of macrophages; Experiment 2) [%] | macroscopic changes on any organs at autopsy [3] | IC50 (ACAT of THP-1 cells) [nM] | IC50 (ACAT of HepG2 microsome) [nM] | Inhibition rate (macrophages) (ACAT of macrophages; Experiment 1) [%]
1 | 81.1 | 90 | CCCNC(=O)Nc1ccc(N2CCOCC2)cc1C(=O)NCC1CCN(C(c2ccccc2)c2ccccc2)CC1 [Example 71, 5-(Morpholin-4-yl)-2-(N'-n-propylureido)-N-[(1-diphenylmethylpiperidin-4-yl)methyl]-benzamide] | 73.5 |  |  |  | 
2 |  |  | CCCCCCCNC(=O)Nc1ccc(N(C)C)cc1C(=O)NC1CCN(C(c2ccccc2)c2ccccc2)CC1 [Example 31, 2-(N'-n-Heptylureido)-5-dimethylamino-N-(1-diphenylmethylpiperidin-4-yl)-benzamide] |  | no macroscopic changes were observed | 200 | 800 | 
3 |  |  | CCCCCNC(=O)Nc1ccccc1C(=O)NCCC1CCN(C(c2ccccc2)c2ccccc2)CC1 [Example 29, 2-(N'-n-Pentylureido)-N-[2-(1-diphenylmethylpiperidin-4-yl)ethyl]benzamide] |  |  | 200 | 1600 | 
4 |  |  | CCCCCCCNC(=O)Nc1ccccc1C(=O)NCCC1CCN(C(c2ccccc2)c2ccccc2)CC1 [Example 28, 2-(N'-n-Heptylureido)-N-[2-(1-diphenylmethylpiperidin-4-yl)ethyl]benzamide] |  | no macroscopic changes were observed | 100 | 1200 | 
5 | 68.52 | 50 | CCCCNC(=O)Nc1ccc(N(C)C)cc1C(=O)NCC1CCN(C(c2ccccc2)c2ccccc2)CC1 [Example 63, 2-(N'-n-Butylureido)-5-dimethylamino-N-[(1-diphenylmethylpiperidin-4-yl)-methyl]-benzamide] | 61.0 |  |  |  | 72.3
6 |  |  | CCCCCCCCNC(=O)Nc1ccccc1C(=O)NCC1CCN(C(c2ccccc2)c2ccccc2)CC1 [Example 6, 2-(N'-n-Octylureido)-N-[(1-diphenylmethylpiperidin-4-yl)methyl]benzamide] |  | no macroscopic changes were observed | 50 | 1600 | 
7 |  | 60 | CCCCNC(=O)Nc1ccc(N2CCOCC2)cc1C(=O)NCC1CCN(C(c2ccccc2)c2ccccc2)CC1 [Example 70, 2-(N'-n-Butylureido)-5-(morpholin-4-yl)-N-[(1-diphenylmethylpiperidin-4-yl)methyl]-benzamide] | 73.0 |  |  |  | 
8 |  |  | CCCCCCCNC(=O)Nc1ccc(O)cc1C(=O)NCCC(c1ccccc1)c1ccccc1 [Example 19, 2-(N'-n-Heptylureido)-5-hydroxy-N-(3,3-diphenylpropyl)benzamide] |  | no macroscopic changes were observed | 100 | 3600 | 
9 |  |  | CCCCCCCCCCNC(=O)Nc1ccccc1C(=O)NC1CCN(C(c2ccccc2)c2ccccc2)CC1 [Example 12, 2-(N'-n-Decylureido)-N-(1-diphenylmethylpiperidin-4-yl)benzamide] |  | no macroscopic changes were observed | 700 | 8000 | 
10 |  |  | CCCCCCCNC(=O)Nc1ccccc1C(=O)NC1CCN(C(c2ccccc2)c2ccccc2)CC1 [Example 45, 2-(N'-n-Heptylureido)-N-(1-diphenylmethylpiperidin-4-yl)benzamide] |  | no macroscopic changes were observed | 800 | 2800 | 
11 | 77.59 | 80 | CCCNC(=O)Nc1ccc(N(C)C)cc1C(=O)NCC1CCN(C(c2ccccc2)c2ccccc2)CC1 [Example 66, 5-Dimethylamino-2-(N'-n-propylureido)-N-[(1-diphenylmethylpiperidin-4-yl)methyl]-benzamide] |  |  |  |  | 73.5
12 |  |  | CCCCCCNC(=O)Nc1ccccc1C(=O)NCC1CCN(C(c2ccccc2)c2ccccc2)CC1 [Example 4, 2-(N'-n-Hexylureido)-N-[(1-diphenylmethylpiperidin-4-yl)methyl]benzamide] |  |  | 90 | 900 | 
13 | 28.35 | 100 | CCCCCCCNC(=O)Nc1ccc(N(C)C)cc1C(=O)NCC1CCN(C(c2ccc(OC)cc2)c2ccc(OC)cc2)CC1 [Example 94, 2-(N'-n-Heptylureido)-5-dimethylamino-N-[[1-bis(4-methoxyphenyl)methylpiperidin-4yl]methyl]benzamide] |  |  |  |  | 
14 | 62.57 | 30 | CCCCNC(=O)Nc1ccc(N(CC)CC)cc1C(=O)NCC1CCN(C(c2ccccc2)c2ccccc2)CC1 [Example 62, 2-(N'-n-Butylureido)-5-diethylamino-N-[(1-diphenylmethylpiperidin-4-yl)-methyl]-benzamide] |  |  |  |  | 
15 | 50.51 | 30 | CCCCNC(=O)Nc1ccc(OCC)cc1C(=O)NCC1CCN(C(c2ccccc2)c2ccccc2)CC1 [Example 68, 2-(N'-n-Butylureido)-5-ethoxy-N-[(1-diphenylmethylpiperidin-4-yl)methyl]-benzamide] |  |  |  |  | 
16 |  |  | CCCCNC(=O)Nc1ccccc1C(=O)NCC1CCN(C(c2ccccc2)c2ccccc2)CC1 [Example 2, 2-(N'-n-Butylureido)-N-[(1-diphenylmethylpiperidin-4-yl)methyl]benzamide] |  | no macroscopic changes were observed | 100 | 1000 | 
17 |  |  | CCCCCNC(=O)Nc1ccccc1C(=O)NCC1CCN(C(c2ccccc2)c2ccccc2)CC1 [Example 3, 2-(N'-n-Pentylureido)-N-[(1-diphenylmethylpiperidin-4-yl)methyl]benzamide] |  |  | 100 | 900 | 
18 |  |  | CCCCCCNC(=O)Nc1ccccc1C(=O)NCCC1CCN(C(c2ccccc2)c2ccccc2)CC1 [Example 30, 2-(N'-n-Hexylureido)-N-[2-(1-diphenylmethylpiperidin-4-yl)ethyl]benzamide] |  |  | 200 | 1200 | 
